Laboratory results from PMC10825183 (Nature Communications, 2024).

Tests used:
[1] = biological target: T1, human HCN2 CNBD ΔC-term (Homo sapiens, UniProt Q9UL51); assay: Isothermal titration calorimetry (ITC), CNBD ΔC-term; details: mean ± SEM, n = 3
T1 sequence (Q9UL51 521-706): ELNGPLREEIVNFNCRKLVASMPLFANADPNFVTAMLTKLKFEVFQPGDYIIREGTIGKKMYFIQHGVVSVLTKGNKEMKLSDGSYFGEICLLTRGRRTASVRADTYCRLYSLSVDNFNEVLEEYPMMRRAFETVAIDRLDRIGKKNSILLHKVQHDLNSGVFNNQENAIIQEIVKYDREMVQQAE

[2] = biological target: rbHCN4 ΔC-term (1-758) (Oryctolagus cuniculus, UniProt Q9TV66); details: mean ± SEM
[3] = biological target: rbHCN4 D750A (Oryctolagus cuniculus, UniProt Q9TV66, D750A)
[4] = biological target: T2, human HCN2 CNBD ΔDE’ (Homo sapiens, UniProt Q9UL51); assay: Isothermal titration calorimetry (ITC), CNBD ΔDE’
T2 sequence (Q9UL51 521-672): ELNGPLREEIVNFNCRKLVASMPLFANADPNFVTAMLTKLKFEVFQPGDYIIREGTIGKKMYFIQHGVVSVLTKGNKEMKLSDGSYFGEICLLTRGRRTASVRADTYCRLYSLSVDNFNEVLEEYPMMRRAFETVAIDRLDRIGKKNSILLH

[5] = biological target: T3, human HCN2 CNBD ΔE (Homo sapiens, UniProt Q9UL51); assay: Isothermal titration calorimetry (ITC), CNBD ΔE; assay type: binding; details: mean ± SEM, n = 3
T3 sequence (Q9UL51 521-681): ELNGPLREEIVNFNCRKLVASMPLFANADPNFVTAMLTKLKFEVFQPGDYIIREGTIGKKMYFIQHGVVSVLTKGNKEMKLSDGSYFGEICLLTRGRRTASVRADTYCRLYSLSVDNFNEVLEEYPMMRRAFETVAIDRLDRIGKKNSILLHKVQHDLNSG

[6] = biological target: T4, human HCN2 CNBD ΔDE (Homo sapiens, UniProt Q9UL51); assay: Isothermal titration calorimetry (ITC), CNBD ΔDE; details: cAMP titrated into 20 µM CNBD, 25 °C, mean ± SEM, n = 3
T4 sequence (Q9UL51 521-667): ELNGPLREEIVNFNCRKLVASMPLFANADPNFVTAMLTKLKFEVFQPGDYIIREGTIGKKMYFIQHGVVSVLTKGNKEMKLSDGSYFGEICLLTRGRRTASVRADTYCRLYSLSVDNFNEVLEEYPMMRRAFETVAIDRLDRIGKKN

[7] = biological target: hHCN2 CNBD D698A (Homo sapiens, UniProt Q9UL51, D698A); details: cAMP titrant
[8] = biological target: rbHCN4 ΔDE (1-718) (Oryctolagus cuniculus, UniProt Q9TV66)
[9] = system: native If current in sinoatrial node myocytes; details: read-out: affinity value for cAMP; ref DiFrancesco and Tortora, Nature, 1991; cited from earlier work
[10] = system: full-length HCN2 with a C-linker and CNBD from HCN4; details: ref Xu et al, JBC, 2010; cited from earlier work
[11] = KD, cAMP titrated into 20 µM CNBD, 25 °C
[12] = 5 µM cAMP in pipette, mean ± SEM
[13] = Hill fit of shift in V1/2 vs cAMP concentration

rbHCN4 ΔDE (1-718), sequence (Q9TV66 1-718, stated change not applied): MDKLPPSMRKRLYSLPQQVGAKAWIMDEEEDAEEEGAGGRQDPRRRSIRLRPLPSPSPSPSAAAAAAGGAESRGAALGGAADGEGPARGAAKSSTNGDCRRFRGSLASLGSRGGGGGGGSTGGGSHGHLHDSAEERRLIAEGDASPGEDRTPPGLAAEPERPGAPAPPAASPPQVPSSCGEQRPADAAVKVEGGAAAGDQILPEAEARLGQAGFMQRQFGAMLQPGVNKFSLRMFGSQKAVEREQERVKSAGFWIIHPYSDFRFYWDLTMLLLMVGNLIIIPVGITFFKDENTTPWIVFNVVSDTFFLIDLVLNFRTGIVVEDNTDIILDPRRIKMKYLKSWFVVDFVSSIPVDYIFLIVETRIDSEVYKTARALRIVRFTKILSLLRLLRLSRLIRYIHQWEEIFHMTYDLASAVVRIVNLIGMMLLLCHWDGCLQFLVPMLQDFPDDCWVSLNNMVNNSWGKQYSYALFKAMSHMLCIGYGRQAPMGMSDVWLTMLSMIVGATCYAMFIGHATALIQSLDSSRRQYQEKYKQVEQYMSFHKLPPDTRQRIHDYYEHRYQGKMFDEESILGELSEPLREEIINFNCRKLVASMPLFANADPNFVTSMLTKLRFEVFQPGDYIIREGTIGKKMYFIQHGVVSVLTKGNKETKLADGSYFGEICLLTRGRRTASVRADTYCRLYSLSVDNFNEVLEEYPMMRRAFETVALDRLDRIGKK
rbHCN4 ΔC-term (1-758), sequence (Q9TV66 1-758, stated change not applied): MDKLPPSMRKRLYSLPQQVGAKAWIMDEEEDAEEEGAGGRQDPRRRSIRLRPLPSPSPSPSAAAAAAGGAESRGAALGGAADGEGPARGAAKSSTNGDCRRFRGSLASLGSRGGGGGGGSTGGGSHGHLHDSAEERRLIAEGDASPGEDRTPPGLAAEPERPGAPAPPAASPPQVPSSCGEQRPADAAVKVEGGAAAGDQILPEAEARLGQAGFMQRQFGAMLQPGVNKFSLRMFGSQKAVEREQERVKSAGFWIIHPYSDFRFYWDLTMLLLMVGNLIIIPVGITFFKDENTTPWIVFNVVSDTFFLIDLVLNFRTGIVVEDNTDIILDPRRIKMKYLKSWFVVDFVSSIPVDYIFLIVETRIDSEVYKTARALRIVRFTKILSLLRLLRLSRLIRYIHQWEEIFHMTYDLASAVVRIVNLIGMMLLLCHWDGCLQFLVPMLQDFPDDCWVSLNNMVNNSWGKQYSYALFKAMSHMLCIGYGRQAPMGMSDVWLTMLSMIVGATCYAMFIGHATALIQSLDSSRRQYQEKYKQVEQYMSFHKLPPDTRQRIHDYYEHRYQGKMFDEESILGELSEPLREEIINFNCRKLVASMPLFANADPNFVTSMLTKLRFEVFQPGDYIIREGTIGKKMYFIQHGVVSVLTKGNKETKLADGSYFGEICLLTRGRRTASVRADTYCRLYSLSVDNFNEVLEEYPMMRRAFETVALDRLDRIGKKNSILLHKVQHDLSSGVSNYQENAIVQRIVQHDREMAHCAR
rbHCN4 D750A, sequence (Q9TV66 whole entry D750A): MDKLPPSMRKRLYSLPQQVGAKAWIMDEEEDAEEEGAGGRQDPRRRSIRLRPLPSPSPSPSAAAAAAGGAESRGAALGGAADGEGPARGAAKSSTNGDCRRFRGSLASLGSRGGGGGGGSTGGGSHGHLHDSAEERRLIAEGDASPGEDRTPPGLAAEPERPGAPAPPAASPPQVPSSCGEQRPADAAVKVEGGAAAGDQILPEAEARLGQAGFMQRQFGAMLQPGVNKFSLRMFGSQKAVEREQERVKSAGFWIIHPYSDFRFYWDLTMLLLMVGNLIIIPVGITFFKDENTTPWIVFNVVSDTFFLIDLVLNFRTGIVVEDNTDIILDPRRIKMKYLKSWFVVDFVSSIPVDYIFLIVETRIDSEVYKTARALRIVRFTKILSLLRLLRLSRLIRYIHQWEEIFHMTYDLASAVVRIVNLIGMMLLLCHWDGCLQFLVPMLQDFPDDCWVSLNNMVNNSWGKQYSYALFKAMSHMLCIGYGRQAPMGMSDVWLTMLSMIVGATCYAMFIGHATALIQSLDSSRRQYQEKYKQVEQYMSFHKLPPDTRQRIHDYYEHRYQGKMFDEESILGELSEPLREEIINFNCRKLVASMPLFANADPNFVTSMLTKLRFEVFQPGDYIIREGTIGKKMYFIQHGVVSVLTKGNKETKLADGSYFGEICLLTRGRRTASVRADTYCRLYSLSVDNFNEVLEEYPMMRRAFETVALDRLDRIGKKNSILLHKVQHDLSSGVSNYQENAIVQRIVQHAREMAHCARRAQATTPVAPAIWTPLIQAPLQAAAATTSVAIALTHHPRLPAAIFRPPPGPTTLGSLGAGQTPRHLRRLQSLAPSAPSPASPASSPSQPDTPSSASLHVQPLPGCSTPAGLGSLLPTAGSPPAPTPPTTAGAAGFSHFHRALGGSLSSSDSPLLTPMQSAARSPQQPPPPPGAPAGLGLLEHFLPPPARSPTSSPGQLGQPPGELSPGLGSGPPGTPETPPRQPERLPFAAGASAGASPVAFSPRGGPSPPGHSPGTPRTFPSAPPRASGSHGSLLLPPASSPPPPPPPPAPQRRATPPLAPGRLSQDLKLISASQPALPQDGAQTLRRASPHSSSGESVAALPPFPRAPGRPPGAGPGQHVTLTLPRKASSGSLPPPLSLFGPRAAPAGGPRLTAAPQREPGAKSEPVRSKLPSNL
hHCN2 CNBD D698A, sequence (Q9UL51 521-706 D698A): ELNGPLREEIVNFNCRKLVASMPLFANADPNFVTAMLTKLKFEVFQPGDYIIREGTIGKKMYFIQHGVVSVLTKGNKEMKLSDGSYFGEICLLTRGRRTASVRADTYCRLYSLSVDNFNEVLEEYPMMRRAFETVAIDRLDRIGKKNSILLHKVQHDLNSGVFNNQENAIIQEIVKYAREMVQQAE

Nc1ncnc2c1ncn2[C@@H]1O[C@@H]2COP(=O)(O)O[C@H]2[C@H]1O [cAMP, Adenosine 3′,5′-cyclic monophosphate]
Kd [1, 11]: 0.3 ± 0.01 µM | stoichiometry (N) ([1]; cAMP titrant): 0.4 ± 0.1 | V1/2 with cAMP ([2]; 1 µM cAMP in pipette): -88.9 ± 1.5 mV | k (inverse slope factor) with cAMP ([2]; 1 µM cAMP): 9.6 ± 0.5 mV | V1/2 with cAMP [3, 12]: -96 ±1.7 mV | k (inverse slope factor) with cAMP ([3]; 5 µM cAMP, mean ± SEM): 9 ± 0.5 mV | Hill coefficient (nH) [3, 13]: 0.8 | Kd ([4]; cAMP titrated into 20 µM CNBD, 25 °C, mean ± SEM, n = 3): 1.2 ± 0.03 µM | Kd ([4]; representative sample (Fig. 2d), cAMP titrant, single ITC experiment): 1.2 µM | stoichiometry (N) ([4]; cAMP titrant, mean ± SEM, n = 3): 0.8 ± 0.1 | Kd [5, 11]: 1.2 ± 0.1 µM | stoichiometry (N) ([5]; cAMP titrant): 1.0 ± 0.1 | Kd [6]: 9.5 ± 0.7 µM | stoichiometry (N) ([7]; mean ± SEM, n = 3): 0.8 ± 0.1 | N, representative sample (Fig. 4d) ([7]; single ITC experiment): 0.7 | V1/2 with cAMP [8, 12]: -102.4± 0.6 mV | k (inverse slope factor) with cAMP ([8]; 5 µM cAMP, mean ± SEM): 7.6 ± 0.3 mV | Hill coefficient (nH) [8, 13]: 1 | EC50 [9]: 0.2 µM | EC50 [10]: 0.24 µM
